Results: a melting point compilation (Tetko et al.)

melting point | Compound
286 to 288 °C | N#Cc1cnn(-c2cccc(C(=O)O)c2)c1N
206 to 208 °C | O=C(O)c1sc2cccc(F)c2c1COc1ccccc1
162 to 164 °C | O=C1CC(c2ccccc2)Nc2ccccc2N1 (stereo unspecified)
79 to 81 °C | Cc1cnn(-c2ccccc2)c1N
49 to 51 °C | Cc1ccc(N)c(N)c1C
108 to 110 °C | Cc1nn(-c2ccccc2)c(N)c1SC#N
237 to 239 °C | O=C(O)c1ccncc1Br
222 to 224 °C | Oc1ccc(-c2noc(-c3cccc(Br)c3)n2)cc1
177 to 179 °C | O=c1[nH]ccc2ccn(Cc3ccccc3)c12
169 to 171 °C | O=C(O)CCNc1ccccn1
259 to 261 °C | CS(=O)(=O)c1nc(C(=O)O)c2ccccn12
249 to 251 °C | Cc1onc(-c2ccncc2)c1C(=O)O
206 to 208 °C | Cc1ccc(C2(C)NC(=O)N(CC(=O)O)C2=O)cc1 (stereo unspecified)
124 to 126 °C | Cc1cc(N)nn1-c1ccc(Cl)c(Cl)c1
131 to 135 °C | O=C(Cc1ccc(Cl)cc1)c1ccccc1
271 to 273 °C | Cc1cc(N2C(=O)c3ccccc3C2=O)ccc1C(=O)O
154 to 156 °C | NC(=O)COc1ccc(O)cc1
207 to 209 °C | CCCc1cc(=O)c2cc(Oc3ccccc3)ccc2[nH]1
105 to 106 °C | CCOC(=O)c1sc(-c2ccc(Br)cc2)cc1N
124 to 126 °C | COc1ccc(C2(C)NC(=O)N(NC(=O)CCl)C2=O)cc1 (stereo unspecified)

melting point | Compound
199 to 201 °C | O=C(O)c1cccn1Cc1ccncc1
47 to 49 °C | Clc1ccc(NCc2ccccc2)cc1
147 to 150 °C | N#Cc1cc(C(=O)c2ccccc2O)cn(-c2ccccn2)c1=O
111 to 113 °C | CC(C)(C)c1nn(-c2ccccc2Cl)cc1C=O
260 to 262 °C | Nc1nnc(-c2ccc(Cl)cc2)o1
247 to 249 °C | CC1(c2ccc(Br)cc2)NC(=O)N(CC(=O)O)C1=O (stereo unspecified)
91 to 93 °C | O=C(c1ccccc1)c1cc(Cl)ccc1Cl
218 to 220 °C | CC(=O)Nc1ncc(-c2ccc(O)cc2)s1
159 to 161 °C | CC1(C)NC(=O)N(c2cccc(C#N)c2)C1=O
124 to 126 °C | O=C(c1ccc(Br)cc1)c1cccnc1
291 to 293 °C | Cc1nn2c(=S)nc3ccccc3c2[nH]1
204 to 206 °C | O=C(O)c1ccc([N+](=O)[O-])c2cccnc12
95 to 100 °C | NNC(=O)c1ccccn1
103 to 105 °C | CC(C)(C)n1[nH]c(-c2ccccc2)cc1=N
116 to 118 °C | Cc1ccc(-n2nc(C(C)(C)C)cc2N)cc1
79 to 81 °C | O=C(c1ccccc1)c1ncccn1
213 to 215 °C | Nc1ccc(N)c(S(=O)(=O)Nc2ccccc2Cl)c1
166 to 168 °C | N#Cc1ccc(N2CCN(c3ccc(F)cc3)CC2)nc1
80 to 82 °C | CC(=O)CCCOc1ccccc1C(N)=O
201 to 203 °C | Brc1cnc2nccn2c1

melting point | Compound
196 to 198 °C | O=C(Nc1cnccn1)c1ccc(I)cc1
241 to 243 °C | Cc1cc(C)n(-c2ccc(C(=O)O)cn2)n1
248 to 250 °C | Cc1noc2nc(-c3ccccc3Cl)cc(C(=O)O)c12
106 to 108 °C | FC(F)(F)c1ccc(OCc2ccc(Cl)nc2)cc1
56 to 58 °C | COC(=O)C(N)c1ccc2ccccc2c1 (stereo unspecified)
226 to 228 °C | NNC(=O)c1cc(-c2ccncc2)nc2ccccc12
187 to 189 °C | Clc1cc(-c2ncc[nH]2)ccn1
145 to 147 °C | COCCOc1nc(C(=O)O)cc2ccccc12
173 to 175 °C | ClCc1ccc(-c2nc3cccc(Cl)c3s2)cc1
273 to 275 °C | O=C(O)c1cc(-c2ccccc2Cl)nc2ccccc12
88 to 92 °C | CCCCc1ccc(-n2nnnc2S)cc1
265 to 267 °C | Cc1c(C(=O)O)sc2nc(C(F)(F)F)ccc12
223 to 225 °C | Cc1cccc(NS(=O)(=O)c2ccc(N)cc2)n1
241 to 243 °C | O=C(O)c1ccc(-c2nc(C3CC3)no2)cc1
121 to 123 °C | CC1c2ccccc2OC1C(=O)O (stereo unspecified)
56 to 58 °C | Nc1ccccc1Cn1cccn1
117 to 119 °C | Sc1nnc(-c2cccnc2)n1Cc1ccco1
67 to 69 °C | N#CC1(N)CCN(Cc2ccccc2)CC1
122 to 124 °C | CS(=O)(=O)c1cccc(C(=O)c2ccc(F)c(F)c2)c1
94 to 96 °C | Cc1cc(N)n(Cc2ccccn2)n1

Further lines, the compound ahead of its results:

Compound | melting point
Nc1cc(C(F)(F)F)no1 | 52 to 54 °C
O=c1ccc(S(=O)(=O)N2CCCCC2)c[nH]1 | 239 to 241 °C
Cc1[nH]c(=O)[nH]c(=O)c1C#N | 351 to 353 °C
O=C(O)C1CC(=O)N(c2ccc(Cl)cc2)C1 (stereo unspecified) | 149 to 151 °C
O=C(O)C=Cc1cscn1 | 174 to 176 °C
O=C(O)CCc1ccc(OC(F)F)cc1 | 61 to 63 °C
Cc1cc(C)c(C(=O)O)c(N)c1 | 103 to 105 °C
CC1(C)CCC(N)(C(N)=O)CC1 | 149 to 151 °C
CN1CCN(c2ccc(C=O)cc2F)CC1 | 65 to 67 °C
Cc1nn(-c2ncc(C(F)(F)F)cc2Cl)c(C(F)(F)F)c1C(=O)O | 167 to 169 °C
O=C(O)CC(O)c1ccc(Cl)cc1 (stereo unspecified) | 197 to 199 °C
OCC1CCCN(c2cc(Cl)ncn2)C1 (stereo unspecified) | 111 to 113 °C
Cc1cc(F)ccc1N1CCCC(Br)C1=O (stereo unspecified) | 94 to 96 °C
O=[N+]([O-])c1cc(NS(=O)(=O)c2ccc3c(c2)OCCCO3)ccc1F | 145 to 147 °C
O=C(O)CCN1C(=O)C2CCCCC2C1=O (stereo unspecified) | 81 to 83 °C
Sc1nnc(N2CCCC2)s1 | 179 to 181 °C
O=C1CCS(=O)(=O)O1 | 69 to 71 °C
Cc1cc(C(=O)C=O)ccc1F | 76 to 78 °C
Cc1cc(C)c2cc(C(=O)O)[nH]c2c1C | 227 to 229 °C
CC(=O)CC(=O)Nc1ccc(I)cc1 | 142 to 144 °C
Cc1cc(Cl)c([N+](=O)[O-])cc1N | 118 to 120 °C

Compound | melting point
CC1CC(C)CN(S(=O)(=O)c2ccc(C(=O)O)cc2)C1 (stereo unspecified) | 275 to 277 °C
CCC1(C(C)C)NC(=O)NC1=O (stereo unspecified) | 164 to 166 °C
Nc1ccc(S(=O)(=O)NCC(F)(F)F)cc1 | 128 to 130 °C
O=C(O)COc1ccc(N2CCCC2=O)cc1 | 150 to 155 °C
O=C(O)CCCNC(=O)NC1CCCCC1 | 153 to 155 °C
N#Cc1cc(F)cc(F)c1[N+](=O)[O-] | 95 to 97 °C
CSCc1cccc(C(=O)O)c1 | 78 to 80 °C
CC(C)C(=O)c1ccc(S(=O)(=O)Cl)cc1 | 64 to 66 °C
CC(O)c1ccc(S(=O)(=O)Nc2ccc(C(=O)O)cc2)cc1 (stereo unspecified) | 199 to 201 °C
CC(C)(C)OC(=O)N1CC(O)(c2ccc(F)c(F)c2)C1 | 69 to 71 °C
CNc1c(F)cccc1C(=O)O | 134 to 136 °C
COc1ccc(OC)c2c(O)c(C(=O)O)cnc12 | 272 to 274 °C
COc1ncc(N)cc1C(N)=O | 144 to 146 °C
CC(C)(C)C(=O)C=Cc1ccc(Br)s1 | 44 to 46 °C
O=C(O)C(=O)c1ccc(Br)cc1O | 188 to 190 °C
Cc1cc(O)cc(=O)n1C1CC1 | 264 to 266 °C
Nc1cc(S(=O)(=O)NCCCN2CCOCC2)ccc1Cl | < 17 °C
O=[N+]([O-])c1ccc(S(=O)(=O)Cl)c(Cl)c1 | 75 to 77 °C
CCNC(=O)Cn1ccc(N)n1 | 124 to 126 °C
CCN(CC)C(=O)N1CCC(C(=O)O)CC1 | 96 to 98 °C
Cn1ccnc1C(O)C(F)(F)F (stereo unspecified) | 135 to 137 °C

Compound | melting point
O=C(O)CN1CCCOC1=O | 172 to 174 °C
Cc1sc(-n2c(C)ccc2C)c(C(=O)O)c1C | 171 to 173 °C
COC(=O)c1ccc(S(C)(=O)=O)cc1 | 116 to 118 °C
O=C(O)c1c[nH]c2cc(F)ccc12 | 228 to 230 °C
CC(C)CN1CC(C(=O)O)CC1=O (stereo unspecified) | 83 to 85 °C
O=C(O)c1ccnc(N2CCCCC2)n1 | 99 to 101 °C
O=C1NC(=O)C(Cc2ccc(O)cc2)N1 (stereo unspecified) | 267 to 269 °C
COC(=O)C(=O)CC(=O)c1cc(Cl)ccc1Cl | 150 to 152 °C
Nc1ccc(S(N)(=O)=O)cn1 | 171 to 173 °C
Cn1ncc2cn[nH]c2c1=O | 246 to 248 °C
CNc1cc(C(=O)O)cc(Cl)n1 | 259 to 261 °C
NNc1c(Cl)cc(C(=O)O)cc1Cl | 207 to 209 °C
NC(=O)c1ccc(C(N)=S)cc1 | 240 to 242 °C
O=C(O)c1cc(Br)cc(S(=O)(=O)Cl)c1 | 154 to 156 °C
COc1cc(OC)cc(N2CCCNCC2)c1 | 50 to 52 °C
CCC(Oc1ccccc1F)C(=O)O (stereo unspecified) | 63 to 65 °C
CC(=O)N(C)c1nc(CCl)cs1 | 139 to 141 °C
O=C1CC2CCCC(C1)N2Cc1ccccc1 | 66 to 68 °C
N#Cc1csc(C=O)c1 | 84 to 86 °C
COC(=O)c1c(Cl)c([N+](=O)[O-])cc([N+](=O)[O-])c1Cl | 97 to 99 °C
O=C(O)C1(Sc2ccccc2)CCCC1 | 65 to 67 °C

Compound | melting point
CC(=O)NC1(c2noc(CCl)n2)CCCC1 | 74 to 76 °C
COc1cc(NC(=O)C2CC2)c(C(=O)O)cc1OC | 236 to 238 °C
O=C(O)Cc1cc(=O)[nH]c(=O)[nH]1 | 324 to 326 °C
CS(=O)(=O)NC1CCC(O)CC1 (stereo unspecified) | 149 to 151 °C
N#CCC(=O)c1cc(Cl)cc(Cl)c1 | 139 to 141 °C
CC(C)NC(=O)NC(C)C | 191 to 193 °C
O=C(O)c1ccccc1OC1CCCCC1 | 86 to 88 °C
NS(=O)(=O)c1cc(C(F)(F)F)ccc1F | 127 to 129 °C
O=C(O)C1CCN(c2cccc(Br)c2)C1=O (stereo unspecified) | 144 to 146 °C
NS(=O)(=O)N1CCCc2ccccc21 | 125 to 127 °C
O=S1(=O)CCC(Nc2ccccc2)C1 (stereo unspecified) | 119 to 123 °C
COC(=O)c1ccc2[nH]c(=O)[nH]c2c1 | 303 to 305 °C
O=S(=O)(Cl)c1ccc2c(c1)S(=O)(=O)CC2 | 128 to 130 °C
NS(=O)(=O)c1ccc(CC(=O)O)s1 | 128 to 130 °C
O=C(Nc1ccc(Cl)cn1)C1CCCNC1 (stereo unspecified) | 156 to 158 °C
CC(C)CNC(=O)c1ccc(N)cc1Cl | 100 to 102 °C
Cn1cc(Br)cc1C(=O)O | 129 to 131 °C
O=C(CCl)Nc1ccc(SC(F)F)cc1 | 55 to 57 °C
